How the values were obtained:
Assay type in all cases: cell-based
stress granule proteins = experiment: ubiquitination of stress granule proteins during granule formation; conditions: HEK243T stably expressing HaloTag-G3BP1, 2 μM TAK243, FIG. 6
Description: (§1) A protein-transition metal complex composite of FIG. 2 was prepared as follows. Cells (HEK243T stably expressing HaloTag-G3BP1) were seeded and grown to 95% confluency prior to labeling. The cells were incubated in DMEM media containing 5 μM of the with iridium catalyst of FIG. 2 for one hour. During this period, the iridium catalyst passes through the cell membranes and conjugates with the HaloTag-G3BP1 protein. The cells were then incubated in fresh DMEM media for one hour to remove or minimize noise from any unbound iridium catalyst.
(§2) A first portion of the Ir-catalyst loaded cells were subsequently transferred to DMEM media pre-dosed with 2 μM TAK243 and incubated for another hour. The remaining second portion (control) was dosed with the same volume of DMSO. The cells were stressed with […] NaAsO2 in DMEM for 30 minutes. Following stressing, the media was replaced with fresh DMEM for cell recovery at the indicated time. During the stressing period, the cells were dosed with protein labeling agent of 500 μM biotin-diazirine in the media 30 minutes prior to the individual time point of photolabeling. During photolabeling, the cells were subjected to 10 minutes of 450 nm blue light irradiation. FIG. 4 illustrates the foregoing testing protocol.
General proteomics preparation protocol was followed. 600 μg of total protein was loaded for streptavidin enrichment. […]

stress granules = experiment: stress granule disassembly after NaAsO2 stress; conditions: HEK243T stably expressing HaloTag-G3BP1; 2 μM TAK243; stressed with 500 mM NaAsO2 for 30 minutes; FIG. 6
Description: as §1, §2

HECT E3 ligase = experiment: effect of HECT E3 ligase inhibition or knockdown on stress granule disassembly; conditions: HECT E3 ligase inhibition or siRNA knockdown; FIG. 10, FIG. 11
Description: With this information provided by the interactome mapping, E3 ligase inhibitor Heclin was employed to determine any effects on HECT E3 ligase function relative to stress granule disassembly, as illustrated in FIG. 9.

Compound | protein ubiquitination (stress granule proteins) | granule disassembly (stress granules) | stress granule disassembly (HECT E3 ligase)
NS(=O)(=O)OC[C@H]1C[C@@H](Nc2ccnc3cc(-c4cccc(SC(F)(F)F)c4)nn23)[C@H](O)[C@@H]1O [TAK243] | undermined or inhibited | delayed | –
CCc1ccc(C=CC(=O)Nc2ccc(C(C)=O)cc2)o1 [Heclin] | – | – | delays stress granule disassembly
